Data: article PMC9920260, “Chemical Modification of Auranofin Yields a New Family of Anticancer Drug Candidates: The Gold(I) Phosphite Analogues” (Molecules, 2023)
Like-named read-outs stand apart in the source and are kept apart here.

What was measured:
[1] = parameters: method as in PMID 29057040; conditions: reported values; cited from earlier work
[2] = Water solubility by quantitative 1H NMR of saturated solution; assay type: physicochemical; conditions: saturated solution in D2O, heated to 40 °C and sonicated 90 min, cooled to room temperature, quantitative 1HNMR vs Me2SO2
Description: (§1) For determining the solubility of investigated compounds, 5 mg of the selected gold(I) complex was suspended in an Eppendorf test tube with 300 μL of D2O and 300 μL of a Me2SO2/D2O solution 6.94 mM (Me2SO2 final conc. 3.47 mM). The suspension was heated to 40 °C and sonicated for 90 min. The resulting saturated solution was left to cool to room temperature, decanted, transferred to an NMR tube and then analyzed through quantitative ^1HNMR spectroscopy (tilt angle = 45°; recycle delay = 4 s; number of scans = 16). The concentration (solubility) was calculated by the relative integral (related to phosphine or phosphite -CH3 groups) with respect to Me2SO2 singlet (δ = 3.14 ppm). LogP values were determined through a modification of the shake-flask method reported in [22]. More precisely, in a 15 mL Falcon tube, roughly 2 mg of the sample was added in 2 mL of n-octanol-saturated water and 2 mL of water-saturated n-octanol. The mixture was hand shaken for ten minutes, and then 0.5 mL of each phase were moved in two different mineralization tubes together with 1 mL of metal-free concentrated nitric acid. The mixtures were heated overnight at 90 °C, then diluted with 4.5 mL of ultrapure water. The gold concentration in each sample was determined through ICP-OES and the respective LogP values were calculated through the ratio between octanol and water gold concentrations.

[3] = LogP, modified shake-flask method with ICP-OES gold determination; assay type: physicochemical; conditions: n-octanol/water, gold concentration by ICP-OES
Description: as §1

[4] = system: cisplatin-resistant A2780 (A2780R) ovarian cancer cells; assay: MTT cytotoxicity assay, A2780R; assay type: cell-based, human; conditions: 72 h of treatment, three independent experiments
Description: (§2) RPMI 1640 cell culture medium, fetal bovine serum (FBS), and phosphate-buffered saline (PBS) were obtained from Euroclone (Milan, Italy). Thiazolyl blue tetrazolium bromide (MTT) was obtained from Merck Life Science (Milan, Italy). The human ovarian cancer cell lines A2780, A2780/CDDP-R (cisplatin-resistant) and SKOV3 were obtained from ATCC. Cell lines were maintained in RPMI-1640 supplemented with 10% fetal calf serum (FCS) and antibiotics (penicillin, 100 U/mL; streptomycin, 100 μg/mL) at 37 °C in a 5% CO2 humidified atmosphere and subcultured twice weekly. Split 1:5 (3–6 × 10^4 cells per mL).
(§3) The cytotoxic effects of auranofin analogues on ovarian cancer cell lines were determined by using the colourimetric MTT (3-(4,5-dimethylthiazol-2-yl)-2,5-diphenyltetrazolium bromide) assay. Viable cells can metabolize MTT into formazan, a blue-coloured compound that is detectable at 595 nm. […] Following precipitation, blue formazan was dissolved in 100 µL of DMSO, and the optical density was read in a microplate reader interfaced with Microplate Manager/PV version 4.0 software (BioRad Laboratories, Hercules, CA, USA). From the absorbance measurements, the half-maximal inhibitory concentration (IC50) value of each compound on ovarian cancer cells was calculated using GraphPad Prism software version 6.0 (Graphpad Holdings, LLC, Boston, MA, USA). […]

[5] = system: thioredoxin reductase (TrxR); conditions: A2780 cells, 24 h of treatment at the 72 h exposure IC50 dose
Description: The analysis was performed in triplicate.
Experiments were performed in triplicate.

[6] = system: A2780 ovarian cancer cells; assay: MTT cytotoxicity assay, A2780; assay type: cell-based, human; conditions: A2780, 72 h of treatment, three independent experiments
Description: as §2, §3

[7] = system: SKOV-3 ovarian cancer cells; assay: MTT cytotoxicity assay, SKOV-3; assay type: cell-based, human; conditions: SKOV-3, 72 h of treatment, three independent experiments
Description: as §2, §3

[8] = system: thioredoxin reductase (TrxR); parameters: method as in PMID 32497830; conditions: auranofin, previously demonstrated; cited from earlier work

SMILES	LogP [1]	Water solubility [2] [millimolar]	LogP [3]	IC50 [4] [µM]	residual TrxR enzyme activity with respect to controls [5]	IC50 [6] [µM]	IC50 [7] [µM]	inhibition of TrxR activity [8]
CCP(CC)CC.[Au+].[Cl-] [Au(PEt3)Cl]	1.7	0.68						
CO[PH](OC)(OC)[Au][S]C1OC(COC(C)=O)C(OC(C)=O)C(OC(C)=O)C1OC(C)=O (stereo not shown) [AuP(OCH3)3SAtg]		2.76	−0.7	2.98 ± 0.23	about 55%	1.26 ± 0.22	2.44 ± 0.32	
CC(=O)OC[C@H]1O[C@@H]([S-])[C@H](OC(C)=O)[C@@H](OC(C)=O)[C@@H]1OC(C)=O.CCP(CC)CC.[Au+] [auranofin, 1-Thio-β-D-glucopyranosatotriethylphosphine gold-2,3,4,6-tetraacetate]	1.6	0.34						40–50%
CC[P](CC)(CC)[Au][I] [Au(PEt3)I]	4.6	0.08						
